# Results published in patent US20230085307A1, “PYRIDAZINONE COMPOUND AND HERBICIDE” (NISSAN CHEMICAL CORPORATION, priority 2019, published 2023).
# How the values were obtained:
# persian speedwell [1] = assay: Test Example 5: herbicidal effect by foliage application, plastic box (Table 20, symbol R); format: in vivo, Persian speedwell (Veronica persica); details: amount of applied herbicide 320 g/ha; foliage application after 14-day growth; evaluated three weeks after application
# In short: (§1)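 Plants sown in sterilized diluvial soil and grown 14 days in a greenhouse at 25° C to 30° C, then sprayed on the foliage with the compound's emulsion diluted in water to a predetermined herbicide amount. Injury to weeds and crops scored three weeks after application on a visual rating scale.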
# velvetleaf [2] = assay: Test Example 5: herbicidal effect by foliage application, plastic box (Table 20, symbol M); format: in vivo, velvetleaf (Abutilon theophrasti); details: amount of applied herbicide 320 g/ha; foliage application after 14-day growth; evaluated three weeks after application
# In short: as §1
# redroot pigweed [3] = assay: Test Example 4: herbicidal effect by soil treatment (Table 19, symbol N); format: in vivo, redroot pigweed (Amaranthus retroflexus); details: amount of applied herbicide 320 g/ha
# In short: (§2)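 Seeds were sown in sterilized diluvial soil and covered with about 1.5 cm of soil. An emulsion formulation diluted with water to a predetermined herbicide amount was sprayed evenly onto the soil surface. Plants grew in a greenhouse at 25° C. to 30° C., and the effect was scored three weeks after application using criteria from an earlier test.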
# green foxtail [4] = assay: Test Example 4: herbicidal effect by soil treatment (Table 19, symbol G); format: in vivo, green foxtail (Setaria viridis); details: amount of applied herbicide 320 g/ha
# In short: as §2
# Japanese bulrush [5] = assay: Test Example 1: herbicidal activity, application before weed generation under submerged conditions (Table 16, symbol B); format: in vivo, Japanese bulrush (Schoenoplectus juncoides); details: amount of applied herbicide 320 g/ha
# In short: (§3)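 Submerged Wagner pots (alluvial soil, 4 cm water) sown with weed seeds and planted with 2.5-leaf rice seedlings; emulsifiable concentrate diluted in water applied to water surface on sowing day. Held in greenhouse at 25-30 °C; injury scored 0-5 by herbicidal rate after three weeks.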
# wild oat [6] = assay: Test Example 5: herbicidal effect by foliage application, plastic box (Table 20, symbol I); format: in vivo, wild oat (Avena fatua); details: amount of applied herbicide 320 g/ha; foliage application after 14-day growth; evaluated three weeks after application
# In short: as §1
# redroot pigweed [7] = assay: Test Example 5: herbicidal effect by foliage application, plastic box (Table 20, symbol N); format: in vivo, redroot pigweed (Amaranthus retroflexus); details: amount of applied herbicide 320 g/ha; foliage application after 14-day growth; evaluated three weeks after application
# In short: as §1
# wild oat [8] = assay: Test Example 4: herbicidal effect by soil treatment (Table 19, symbol I); format: in vivo, wild oat (Avena fatua); details: amount of applied herbicide 320 g/ha
# In short: as §2
# chickweed [9] = assay: Test Example 5: herbicidal effect by foliage application, plastic box (Table 20, symbol P); format: in vivo, common chickweed (Stellaria media); details: amount of applied herbicide 320 g/ha; foliage application after 14-day growth; evaluated three weeks after application
# In short: as §1
# barnyard grass [10] = assay: Test Example 3: herbicidal effect by foliage application, Wagner pot (Table 18, symbol H); format: in vivo, barnyard grass (Echinochloa crus-galli); details: 320 g/ha
# In short: (§4)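 Plants were sown in alluvial soil held under 0.1–0.5 cm standing water and grown 14 days in a greenhouse at 25–30 °C. An emulsifiable formulation, water-diluted to the set dose, was then sprayed onto the foliage, and effects were scored three weeks later using previously defined criteria.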
# rice flat sedge = assay: Test Example 3: herbicidal effect by foliage application, Wagner pot (Table 18, symbol E); format: in vivo, rice flat sedge (Cyperus iria); details: 320 g/ha
# In short: as §4
# blackgrass [11] = assay: Test Example 4: herbicidal effect by soil treatment (Table 19, symbol J); format: in vivo, blackgrass (Alopecurus myosuroides); details: amount of applied herbicide 320 g/ha
# In short: as §2
# Chinese sprangletop = assay: Test Example 3: herbicidal effect by foliage application, Wagner pot (Table 18, symbol D); format: in vivo, chinese sprangletop (Leptochloa chinensis); details: 320 g/ha
# In short: as §4
# oval-leafed pondweed [12] = assay: Test Example 1: herbicidal activity, application before weed generation under submerged conditions (Table 16, symbol C); format: in vivo, oval-leafed pondweed (Monochoria vaginalis); details: amount of applied herbicide 320 g/ha
# In short: as §3
# barnyard grass [13] = assay: Test Example 4: herbicidal effect by soil treatment (Table 19, symbol H); format: in vivo, barnyard grass (Echinochloa crus-galli); details: amount of applied herbicide 320 g/ha
# In short: as §2
# lambsquarters [14] = assay: Test Example 4: herbicidal effect by soil treatment (Table 19, symbol O); format: in vivo, lambsquarters (Chenopodium album); details: amount of applied herbicide 320 g/ha
# In short: as §2
# blackgrass [15] = assay: Test Example 5: herbicidal effect by foliage application, plastic box (Table 20, symbol J); format: in vivo, blackgrass (Alopecurus myosuroides); details: amount of applied herbicide 320 g/ha; foliage application after 14-day growth; evaluated three weeks after application
# In short: as §1
# Italian ryegrass [16] = assay: Test Example 4: herbicidal effect by soil treatment (Table 19, symbol K); format: in vivo, Italian ryegrass (Lolium multiflorum); details: amount of applied herbicide 320 g/ha
# In short: as §2
# windgrass [17] = assay: Test Example 5: herbicidal effect by foliage application, plastic box (Table 20, symbol L); format: in vivo, windgrass (Apera spica-venti); details: amount of applied herbicide 320 g/ha; foliage application after 14-day growth; evaluated three weeks after application
# In short: as §1
# southern crabgrass [18] = assay: Test Example 4: herbicidal effect by soil treatment (Table 19, symbol F); format: in vivo, southern crabgrass (Digitaria ciliaris); details: amount of applied herbicide 320 g/ha
# In short: as §2
# velvetleaf [19] = assay: Test Example 4: herbicidal effect by soil treatment (Table 19, symbol M); format: in vivo, velvetleaf (Abutilon theophrasti); details: amount of applied herbicide 320 g/ha
# In short: as §2
# windgrass [20] = assay: Test Example 4: herbicidal effect by soil treatment (Table 19, symbol L); format: in vivo, windgrass (Apera spica-venti); details: amount of applied herbicide 320 g/ha
# In short: as §2
# chickweed [21] = assay: Test Example 4: herbicidal effect by soil treatment (Table 19, symbol P); format: in vivo, common chickweed (Stellaria media); details: amount of applied herbicide 320 g/ha
# In short: as §2
# persian speedwell [22] = assay: Test Example 4: herbicidal effect by soil treatment (Table 19, symbol R); format: in vivo, Persian speedwell (Veronica persica); details: amount of applied herbicide 320 g/ha
# In short: as §2
# barnyard grass [23] = assay: Test Example 5: herbicidal effect by foliage application, plastic box (Table 20, symbol H); format: in vivo, barnyard grass (Echinochloa crus-galli); details: amount of applied herbicide 320 g/ha; foliage application after 14-day growth; evaluated three weeks after application
# In short: as §1
# Italian ryegrass [24] = assay: Test Example 5: herbicidal effect by foliage application, plastic box (Table 20, symbol K); format: in vivo, Italian ryegrass (Lolium multiflorum); details: amount of applied herbicide 320 g/ha; foliage application after 14-day growth; evaluated three weeks after application
# In short: as §1
# lambsquarters [25] = assay: Test Example 5: herbicidal effect by foliage application, plastic box (Table 20, symbol O); format: in vivo, lambsquarters (Chenopodium album); details: amount of applied herbicide 320 g/ha; foliage application after 14-day growth; evaluated three weeks after application
# In short: as §1
# southern crabgrass [26] = assay: Test Example 5: herbicidal effect by foliage application, plastic box (Table 20, symbol F); format: in vivo, southern crabgrass (Digitaria ciliaris); details: amount of applied herbicide 320 g/ha; foliage application after 14-day growth; evaluated three weeks after application
# In short: as §1
# green foxtail [27] = assay: Test Example 5: herbicidal effect by foliage application, plastic box (Table 20, symbol G); format: in vivo, green foxtail (Setaria viridis); details: amount of applied herbicide 320 g/ha; foliage application after 14-day growth; evaluated three weeks after application
# In short: as §1
# late watergrass [28] = assay: Test Example 1: herbicidal activity, application before weed generation under submerged conditions (Table 16, symbol A); format: in vivo, late watergrass (Echinochloa oryzicola); details: amount of applied herbicide 320 g/ha
# In short: as §3
# oval-leafed pondweed [29] = assay: Test Example 2: herbicidal activity, application during weed generation under submerged conditions (Table 17, symbol C); format: in vivo, oval-leafed pondweed (Monochoria vaginalis); details: AAH 320 g/ha; application during weed generation, submerged conditions
# Description: (§5) [Test Example 2] Herbicidal Activity Test by Application during Weed Generation under Submerged Conditions After alluvial soil was placed into 1/10000 are of Wagner pot, water was poured and mixed to form a submerged condition having a water depth of 4 cm. Seeds of late watergrass, Japanese bulrush, and oval-leafed pondweed were sowed in a mixed manner in the aforementioned pot, and the pot was placed in a greenhouse at 25° C. to 30° C. for growth of the plants. When late watergrass, Japanese bulrush, and oval-leafed pondweed were grown to one leaf stage to two leaf stage, the emulsion agent of the compound of the present invention prepared according to Formulation Example 2 was diluted with water so as to achieve a predetermined herbicide amount, and the diluted emulsion agent was applied to the surface of the water. Three weeks after the herbicide application, the effect of the herbicide on each plant was evaluated according to the criteria of Test Example 1.
# Japanese bulrush [30] = assay: Test Example 2: herbicidal activity, application during weed generation under submerged conditions (Table 17, symbol B); format: in vivo, Japanese bulrush (Schoenoplectus juncoides); details: AAH 320 g/ha; application during weed generation, submerged conditions
# Description: as §5
# late watergrass [31] = assay: Test Example 2: herbicidal activity, application during weed generation under submerged conditions (Table 17, symbol A); format: in vivo, late watergrass (Echinochloa oryzicola); details: AAH 320 g/ha; application during weed generation, submerged conditions
# Description: as §5
smiles,measurement,setting,value
CCCC(=O)Oc1c(C)nn(C)c(=O)c1-c1c(-c2ccccc2OCC)sc2cc(Cl)c(Cl)cc12 [5-046],"Herbicidal effect by foliage application, R: persian speedwell",persian speedwell [1],4 (Herbicidal rate of 70% or more and less than 90%)
same,"Herbicidal effect by foliage application, M: velvetleaf",velvetleaf [2],5 (Herbicidal rate of 90% or more (almost completely withered))
same,"N: redroot pigweed, herbicidal effect grade",redroot pigweed [3],0 (Herbicidal rate of 5% or less (almost no effect))
same,"G: green foxtail, herbicidal effect grade",green foxtail [4],0 (Herbicidal rate of 5% or less (almost no effect))
same,"Herbicidal effect, B: Japanese bulrush",Japanese bulrush [5],3 (Herbicidal rate of 40% or more and less than 70%)
same,"Herbicidal effect by foliage application, I: wild oat",wild oat [6],0 (Herbicidal rate of 5% or less (almost no effect))
same,"Herbicidal effect by foliage application, N: redroot pigweed",redroot pigweed [7],5 (Herbicidal rate of 90% or more (almost completely withered))
same,"I: wild oat, herbicidal effect grade",wild oat [8],0 (Herbicidal rate of 5% or less (almost no effect))
same,"Herbicidal effect by foliage application, P: chickweed",chickweed [9],5 (Herbicidal rate of 90% or more (almost completely withered))
same,herbicidal effect on barnyard grass (H),barnyard grass [10],5 (Herbicidal rate of 90% or more (almost completely withered))
same,herbicidal effect on rice flat sedge (E),rice flat sedge,5 (Herbicidal rate of 90% or more (almost completely withered))
same,"J: blackgrass, herbicidal effect grade",blackgrass [11],0 (Herbicidal rate of 5% or less (almost no effect))
same,herbicidal effect on Chinese sprangletop (D),Chinese sprangletop,3 (Herbicidal rate of 40% or more and less than 70%)
same,"Herbicidal effect, C: oval-leafed pondweed",oval-leafed pondweed [12],0 (Herbicidal rate of 5% or less (almost no effect))
same,"H: barnyard grass, herbicidal effect grade",barnyard grass [13],0 (Herbicidal rate of 5% or less (almost no effect))
same,"O: lambsquarters, herbicidal effect grade",lambsquarters [14],0 (Herbicidal rate of 5% or less (almost no effect))
same,"Herbicidal effect by foliage application, J: blackgrass",blackgrass [15],0 (Herbicidal rate of 5% or less (almost no effect))
same,"K: Italian ryegrass, herbicidal effect grade",Italian ryegrass [16],0 (Herbicidal rate of 5% or less (almost no effect))
same,"Herbicidal effect by foliage application, L: windgrass",windgrass [17],0 (Herbicidal rate of 5% or less (almost no effect))
same,"F: southern crabgrass, herbicidal effect grade",southern crabgrass [18],0 (Herbicidal rate of 5% or less (almost no effect))
same,"M: velvetleaf, herbicidal effect grade",velvetleaf [19],0 (Herbicidal rate of 5% or less (almost no effect))
same,"L: windgrass, herbicidal effect grade",windgrass [20],0 (Herbicidal rate of 5% or less (almost no effect))
same,"P: chickweed, herbicidal effect grade",chickweed [21],3 (Herbicidal rate of 40% or more and less than 70%)
same,"R: persian speedwell, herbicidal effect grade",persian speedwell [22],0 (Herbicidal rate of 5% or less (almost no effect))
same,"Herbicidal effect by foliage application, H: barnyard grass",barnyard grass [23],4 (Herbicidal rate of 70% or more and less than 90%)
same,"Herbicidal effect by foliage application, K: Italian ryegrass",Italian ryegrass [24],0 (Herbicidal rate of 5% or less (almost no effect))
same,"Herbicidal effect by foliage application, O: lambsquarters",lambsquarters [25],3 (Herbicidal rate of 40% or more and less than 70%)
same,"Herbicidal effect by foliage application, F: southern crabgrass",southern crabgrass [26],3 (Herbicidal rate of 40% or more and less than 70%)
same,"Herbicidal effect by foliage application, G: green foxtail",green foxtail [27],3 (Herbicidal rate of 40% or more and less than 70%)
same,"Herbicidal effect, A: late watergrass",late watergrass [28],0 (Herbicidal rate of 5% or less (almost no effect))
Cc1cc2sc(-c3ccc(OC(F)(F)F)cc3)c(-c3c(O)c(C)nn(C)c3=O)c2cc1C [5-109],"herbicidal effect rating, C: oval-leafed pondweed",oval-leafed pondweed [29],0 (Herbicidal rate of 5% or less (almost no effect))
same,"herbicidal effect rating, B: Japanese bulrush",Japanese bulrush [30],0 (Herbicidal rate of 5% or less (almost no effect))
same,"herbicidal effect rating, A: late watergrass",late watergrass [31],2 (Herbicidal rate of 20% or more and less than 40%)
